Patent US20040076601A1, “Pharmaceutical form comprising a cell regulating factor and/or a cell proliferation promoter” (priority 2000, published 2004)

Legend:
BP-A31 fibroblasts = assay: MTT proliferation assay of form containing SPC (Example 7); format: cell-based, mouse; settings: BP-A31 fibroblasts over 24 h vs untreated control; 3.1% added to the well, final theoretical SPC concentration 15 μM
Protocol: SPC was formulated in a support material containing 60% by weight of methylidene malonate oligomer and 40% by weight of methylidene malonate polymer prepared from 1-ethoxycarbonyl-1-ethoxycarbonylmethyleneoxycarbonylethene monomer (100 μg of SPC formulated per 40 mg of material, as described in Example 2). The pharmaceutical form according to the invention, containing SPC or its control solvent, was then brought into contact with BP-A31 fibroblasts according to the protocol described in Example 1. The effect of adding 3.1% to the well, generating a final theoretical SPC concentration of 15 μM, is shown here. The stimulation of cell proliferation was quantified by the MTT assay. The results, expressed as the percentage proliferation of the cells over 24 h compared with an untreated control culture, are reported in Table 6 below.

BP-A31 cells = assay: Stability of the biological activity of FGF-2 after storage at 4° C., MTT assay (Example 4); format: cell-based, mouse; settings: MTT assay 24 h, FIG. 1
Protocol: The materials used are on the one hand the three pharmaceutical forms of Example 3, in which the support material consists of different proportions by weight of methylidene malonate oligomers and polymers, and on the other hand free (non-formulated) FGF-2. After storage of the 3 pharmaceutical forms and the free FGF-2 for 7, 14 and 21 days at 4° C., the stimulating activity on cell proliferation is measured by the MTT assay described in Example 2 for 24 h compared with a control culture with no growth factor added.
The results are shown graphically in FIG. 1, in which the storage time at 4° C., expressed in days, is plotted on the abscissa and the percentage proliferation is plotted on the ordinate.

Row | Compound | Proliferation (%) (BP-A31 fibroblasts) | stability of biological activity on storage (BP-A31 cells)
1 | CCCCCCCCCCCCC/C=C/[C@@H](O)[C@@H](N)COP(=O)([O-])OCC[N+](C)(C)C [Free SPC, sphingosylphosphorylcholine] | 158.8 ± 3.2 | –
2 | free (non-formulated) FGF-2: free (non-formulated) basic fibroblast growth factor, human recombinant FGF-2 | – | rapidly losing its biological activity (after 7 days)
